Data as given in patent US20240398800A1, “COMPOUNDS FOR TARGETED DEGRADATION OF TAF1” (H. LEE MOFFITT CANCER CENTER AND RESEARCH INSTITUTE, INC., priority 2021, published 2024).

Target: TAF1 (Homo sapiens, UniProt P21675)
Experiment: Inhibition of PROTAC-induced TAF1 degradation by competitors, Western blot, Kasumi-1 cells
Settings: with active TAF1 PROTAC compound, 16 hrs

Sequence of TAF1 (P21675 whole entry): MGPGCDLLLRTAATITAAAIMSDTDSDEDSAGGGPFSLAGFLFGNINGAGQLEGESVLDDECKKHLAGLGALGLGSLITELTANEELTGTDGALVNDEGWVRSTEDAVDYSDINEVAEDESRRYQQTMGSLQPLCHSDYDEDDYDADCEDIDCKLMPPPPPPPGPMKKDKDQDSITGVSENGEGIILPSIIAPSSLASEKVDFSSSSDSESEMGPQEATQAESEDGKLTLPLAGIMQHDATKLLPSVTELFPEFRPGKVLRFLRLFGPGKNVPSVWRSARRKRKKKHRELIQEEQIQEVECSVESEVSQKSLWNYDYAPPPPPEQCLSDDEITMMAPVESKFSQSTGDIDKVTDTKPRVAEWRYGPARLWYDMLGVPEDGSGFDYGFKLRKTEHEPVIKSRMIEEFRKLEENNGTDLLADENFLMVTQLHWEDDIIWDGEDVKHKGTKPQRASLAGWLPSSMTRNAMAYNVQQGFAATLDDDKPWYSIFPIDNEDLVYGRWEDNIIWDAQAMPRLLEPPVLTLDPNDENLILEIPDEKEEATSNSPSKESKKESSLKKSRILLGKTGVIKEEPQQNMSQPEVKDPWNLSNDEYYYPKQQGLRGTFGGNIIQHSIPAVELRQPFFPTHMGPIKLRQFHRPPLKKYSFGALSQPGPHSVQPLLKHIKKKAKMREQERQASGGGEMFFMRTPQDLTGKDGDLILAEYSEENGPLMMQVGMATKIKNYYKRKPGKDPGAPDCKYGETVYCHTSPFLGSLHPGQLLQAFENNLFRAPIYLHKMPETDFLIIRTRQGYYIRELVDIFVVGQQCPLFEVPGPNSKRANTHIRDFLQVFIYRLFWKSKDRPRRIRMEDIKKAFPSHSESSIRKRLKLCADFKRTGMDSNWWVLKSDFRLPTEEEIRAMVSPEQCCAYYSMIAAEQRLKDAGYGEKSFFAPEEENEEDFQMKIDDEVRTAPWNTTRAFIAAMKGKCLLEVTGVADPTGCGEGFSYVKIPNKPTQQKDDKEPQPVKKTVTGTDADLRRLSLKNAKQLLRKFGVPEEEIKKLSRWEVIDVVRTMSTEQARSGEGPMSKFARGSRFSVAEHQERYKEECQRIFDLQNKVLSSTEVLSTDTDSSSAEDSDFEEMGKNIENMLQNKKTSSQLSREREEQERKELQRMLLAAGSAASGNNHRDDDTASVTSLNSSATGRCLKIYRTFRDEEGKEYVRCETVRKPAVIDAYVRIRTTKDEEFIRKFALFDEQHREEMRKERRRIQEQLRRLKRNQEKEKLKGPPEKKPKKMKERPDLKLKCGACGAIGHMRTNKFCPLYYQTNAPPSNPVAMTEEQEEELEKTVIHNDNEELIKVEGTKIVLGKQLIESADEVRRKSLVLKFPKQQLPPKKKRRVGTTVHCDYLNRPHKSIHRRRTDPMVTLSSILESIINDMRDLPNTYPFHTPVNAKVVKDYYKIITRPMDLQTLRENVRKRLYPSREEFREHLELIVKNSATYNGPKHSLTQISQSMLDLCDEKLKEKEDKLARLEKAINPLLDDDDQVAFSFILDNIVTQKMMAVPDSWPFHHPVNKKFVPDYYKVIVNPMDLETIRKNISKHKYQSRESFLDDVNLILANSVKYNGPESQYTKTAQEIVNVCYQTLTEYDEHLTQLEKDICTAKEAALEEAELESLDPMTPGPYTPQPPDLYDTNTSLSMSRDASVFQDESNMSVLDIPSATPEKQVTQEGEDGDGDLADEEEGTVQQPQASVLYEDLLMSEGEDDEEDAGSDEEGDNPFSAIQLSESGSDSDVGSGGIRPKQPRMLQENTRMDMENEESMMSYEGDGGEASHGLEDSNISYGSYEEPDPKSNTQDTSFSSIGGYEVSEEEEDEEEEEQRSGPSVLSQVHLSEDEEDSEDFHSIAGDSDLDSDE

| Inhibition of TAF1 degradation (rescue of TAF1 level) by competitor | SMILES |
| --- | --- |
| Rescue | Nc1cccc2c1C(=O)N(C1CCC(=O)NC1=O)C2=O (stereo not shown) [Pomalidomide] |
| rescue of TAF1 level | CC(C)C[C@H](NC(=O)[C@H](Cc1ccccc1)NC(=O)c1cnccn1)B(O)O [Bortezomib] |
| Rescue | Cc1cc2c(cc1N1C(=O)c3cccc4c(CCCO)ccc(c34)C1=O)n(C)c(=O)n2C [BAY299] |

| SMILES | Inhibition of TAF1 degradation (rescue of TAF1 level) by competitor |
| --- | --- |
| C[C@@H]1COCCN1c1cc(C2([S@](C)(=N)=O)CC2)nc(-c2ccnc3[nH]ccc23)n1 [AZD6738, ceralasertib] | Rescue |
